According to patent publication US8012975B2, “Antitumoral analogs of ET-743” (Pharma Mar, S.A., priority 2000, dated 2011):
Read-outs that look alike come from different tables or passages of the source.

Columns and labels:
in vitro = conditions: African green monkey
P-388 [1] = assay: Cytotoxic activity IC50, P-388; conditions: Mus musculus, P388, read-out: CYTOTOXIC ACTIVITIY IC50 (μM) P-388
A-549 [2] = assay: Cytotoxic activity IC50, A-549; conditions: Homo sapiens, A549, read-out: CYTOTOXIC ACTIVITIY IC50 (μM) A-549, A-549
HT-29 [3] = assay: Cytotoxic activity IC50, HT-29; conditions: Homo sapiens, HT-29, read-out: CYTOTOXIC ACTIVITIY IC50 (μM) HT-29, HT-29
MEL-28 [4] = assay: Cytotoxic activity IC50, MEL-28; conditions: Homo sapiens, SK-MEL-28, read-out: CYTOTOXIC ACTIVITIY IC50 (μM) MEL-28, MEL-28
A-549 [5] = test system: A-549
P-388 [6] = test system: P-388
HT-29 [7] = test system: HT-29
DU-145 [8] = test system: DU-145
MEL-28 [9] = test system: MEL-28
DU-145 [10] = assay: Cytotoxic activity IC50, DU-145; conditions: Homo sapiens, DU-145, read-out: CYTOTOXIC ACTIVITIY IC50 (μM) DU-145, DU-145

Row | Structure (SMILES) | IC50 (in vitro) | IC50 (P-388 [1]) | IC50 (A-549 [2]) | IC50 (HT-29 [3]) | IC50 (MEL-28 [4]) | IC50 (A-549 [5]) | IC50 (P-388 [6]) | IC50 (HT-29 [7]) | IC50 (DU-145 [8]) | IC50 (MEL-28 [9]) | also measured
1 | C=CCOc1c(C)c2c(c3c1CC1[C@H]4c5c(cc(C)c(OC)c5O)C[C@@H]([C@H](C#N)N1[C@H]3CNC(=O)OCC(Cl)(Cl)Cl)N4C)OCO2 (stereo partly drawn) | 14 nM | 0.014 µM | 0.014 µM | 0.014 µM | 0.014 µM | – | – | – | – | – | –
2 | COc1c(C)cc2c(c1O)[C@@H]1C3Cc4c(OC(C)=O)c(C)c5c(c4[C@H](CNC(=O)CCc4ccccc4)N3[C@@H](O)[C@H](C2)N1C)OCO5 (stereo partly drawn) [drawing 123] | – | – | – | – | – | 0.1 nM | 0.1 nM | 0.1 nM | 0.1 nM | 0.1 nM | –
3 | COc1c(C)cc2c(c1O)[C@@H]1C3Cc4c(O)c(C)c5c(c4[C@H](CN4C(=O)c6ccccc6C4=O)N3[C@@H](C#N)[C@H](C2)N1C)OCO5 (stereo partly drawn) | 1 nM | – | – | – | – | – | – | – | – | – | –
4 | C=CCOc1c(C)c2c(c3c1CC1[C@H]4c5c(cc(C)c(OC)c5OCOC)C[C@@H]([C@H](C#N)N1[C@H]3COC(=O)CCc1ccccc1)N4C)OCO2 (stereo partly drawn) | 700 nM | 0.7 µM | 0.7 µM | 0.7 µM | 0.7 µM | – | – | – | – | – | IC50 (DU-145 [10]): 0.7 µM
5 | COc1c(C)cc2c(c1O)[C@@H]1C3Cc4c(OC(C)=O)c(C)c5c(c4[C@H](CNC(=O)[C@@H](C)NC(=O)CC(C)C)N3[C@@H](C#N)[C@H](C2)N1C)OCO5 (stereo partly drawn) | – | – | – | – | – | 0.1 nM | 0.1 nM | 0.1 nM | 0.1 nM | 0.1 nM | –
6 | COc1c(C)cc2c(c1O)[C@@H]1C3Cc4c(OC(C)=O)c(C)c5c(c4[C@H](CNC(=O)[C@H](C)NC(=O)C(F)(F)F)N3[C@@H](C#N)[C@H](C2)N1C)OCO5 (stereo partly drawn) | – | – | – | – | – | 0.1 nM | 0.1 nM | 0.1 nM | 0.1 nM | 0.1 nM | –
7 | COC1=C(C)C(=O)C2=C(C1=O)[C@H](CNC(=O)C(C)N=CSNc1ccccc1)N1C(C2)[C@H]2c3c(cc(C)c(OC)c3O)C[C@@H]([C@@H]1C#N)N2C (stereo partly drawn) | 18 nM | – | – | – | – | – | – | – | – | – | –
8 | C/C=C(\OC(C)=O)C1=C(C2=COCO2)[C@H](CNC(=O)CCC)N2C(C1)[C@H]1c3c(cc(C)c(OC)c3O)C[C@@H]([C@@H]2C#N)N1C (stereo partly drawn) | – | – | – | – | – | 0.1 nM | 0.1 nM | 0.1 nM | 0.1 nM | 0.1 nM | –
9 | CCCC(=O)OC[C@H]1c2c(c(OC(C)=O)c(C)c3c2OCO3)CC2[C@H]3c4c(cc(C)c(OC)c4OCOC)C[C@@H]([C@H](C#N)N21)N3C (stereo partly drawn) [drawing 152] | – | – | – | – | – | – | 0.1 nM | – | – | – | IC50 (A-549 [5]; human): 0.8 nM; IC50 (HT-29 [7]; human): 0.8 nM; IC50 (DU-145 [8]; human): 0.8 nM; IC50 (MEL-28 [9]; human): 0.8 nM
10 | COCOc1c(OC)c(C)cc2c1[C@@H]1C3CC4=C(C(=O)C(OC)=C(C)C4=O)[C@H](CNC(C)=O)N3[C@@H](C#N)[C@H](C2)N1C (stereo partly drawn) | 220 nM | 0.22 µM | 0.22 µM | 0.22 µM | 0.22 µM | – | – | – | – | – | –
11 | CCCCCC(=O)N[C@@H](C)C(=O)NC[C@H]1c2c(c(OC(C)=O)c(C)c3c2OCO3)CC2[C@H]3c4c(cc(C)c(OC)c4O)C[C@@H]([C@H](O)N21)N3C (stereo partly drawn) | 1 nM | 0.001 µM | 0.001 µM | 0.001 µM | 0.001 µM | – | – | – | – | – | IC50 (DU-145 [10]): 0.001 µM
12 | CCC(=O)NC[C@H]1c2c(c(OC(C)=O)c(C)c3c2OCO3)CC2[C@H]3c4c(cc(C)c(OC)c4O)C[C@@H]([C@H](O)N21)N3C (stereo partly drawn) [drawing 125] | – | – | – | – | – | 0.1 nM | 0.1 nM | 0.1 nM | 0.1 nM | 0.1 nM | –
13 | COc1c(C)cc2c(c1O)[C@@H]1C3Cc4c(OC(C)=O)c(C)c5c(c4[C@H](CNC(=O)[C@H](C)NC(=O)CCc4ccccc4)N3[C@@H](O)[C@H](C2)N1C)OCO5 (stereo partly drawn) [drawing 135] | – | – | – | – | – | 0.1 nM | 0.1 nM | 0.1 nM | 0.1 nM | 0.1 nM | –
14 | C=CCOC(=O)Oc1c(C)c2c(c3c1CC1[C@H]4c5c(cc(C)c(OC)c5O)C[C@@H]([C@H](C#N)N1[C@H]3CNC(=O)/C=C/c1ccccc1)N4C)OCO2 (stereo partly drawn) | – | – | – | – | – | 0.1 nM | 0.1 nM | 0.1 nM | 0.1 nM | 0.1 nM | –
15 | CCCCCC(=O)N[C@@H](C)C(=O)NC[C@H]1c2c(c(OC(C)=O)c(C)c3c2OCO3)CC2[C@H]3c4c(cc(C)c(OC)c4O)C[C@@H]([C@H](C#N)N21)N3C (stereo partly drawn) | 1 nM | 0.001 µM | 0.001 µM | 0.001 µM | 0.001 µM | – | – | – | – | – | IC50 (DU-145 [10]): 0.001 µM
16 | C=CCOc1c(C)c2c(c3c1CC1[C@H]4c5c(cc(C)c(OC)c5OCOC)C[C@@H]([C@H](C#N)N1[C@H]3CNC(=O)OCC(Cl)(Cl)Cl)N4C)OCO2 (stereo partly drawn) | 130 nM | 0.13 µM | 0.13 µM | 0.13 µM | 0.13 µM | – | – | – | – | – | –
